According to PubChem BioAssay AID1963869 (Molecular Pharmacology Branch, DTP, NCI, 2024):

Tested on: KRAS patient-derived spheroids with HUVEC/MSC, viability
Test: Anticancer human tumor 323965-272-R-J2-PDC patient-derived pancreatic carcinoma cell line growth inhibition [KRAS2]
Conditions: for IC50: curve of first compound; for viability, T/C: stronger effect = lower value
How it was run: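 KRAS-mutant tumor cells were grown as spheroids with HUVEC endothelial cells and human MSCs as stroma. Targeted agents were tested alone and with KRAS pathway inhibitors. Doses started at or near clinical Cmax, or 10 microM, descending half-log.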

[1] = second compound 0.1 µM, first compound 0.0316 µM
[2] = second compound 0.1 µM, first compound 0.1 µM
[3] = second compound 0.1 µM, first compound 0.316 µM
[4] = second compound 0.1 µM, first compound 1 µM
[5] = second compound 0.1 µM, first compound 3.16 µM
[6] = second compound 0.1 µM, first compound 10 µM
[7] = second compound 0.316 µM, first compound 0.0316 µM
[8] = second compound 0.316 µM, first compound 0.1 µM
[9] = second compound 0.316 µM, first compound 0.316 µM
[10] = second compound 0.316 µM, first compound 1 µM
[11] = second compound 0.316 µM, first compound 3.16 µM
[12] = second compound 0.316 µM, first compound 10 µM
[13] = second compound 1 µM, first compound 0.0316 µM
[14] = second compound 1 µM, first compound 0.1 µM
[15] = second compound 1 µM, first compound 0.316 µM
[16] = second compound 1 µM, first compound 1 µM
[17] = second compound 1 µM, first compound 3.16 µM
[18] = second compound 1 µM, first compound 10 µM
[19] = second compound 3.16 µM, first compound 0.0316 µM
[20] = second compound 3.16 µM, first compound 0.1 µM
[21] = second compound 3.16 µM, first compound 0.316 µM
[22] = second compound 3.16 µM, first compound 1 µM
[23] = second compound 3.16 µM, first compound 3.16 µM
[24] = second compound 3.16 µM, first compound 10 µM
[25] = second compound 10 µM, first compound 0.0316 µM
[26] = second compound 10 µM, first compound 0.1 µM
[27] = second compound 10 µM, first compound 0.316 µM
[28] = second compound 10 µM, first compound 1 µM
[29] = second compound 10 µM, first compound 3.16 µM
[30] = second compound 10 µM, first compound 10 µM
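Also: spheroids exposed to agents for 7 days.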
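For viability, T/C in this document: 100% = DMSO vehicle control viability.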

CC(C)NCC(C(=O)N1CCN(c2ncnc3c2C(C)CC3O)CC1)c1ccc(Cl)cc1 (stereo not given) + COc1cc2nc(C)nc(NC(C)c3cc(N)cc(C(F)(F)F)c3)c2cc1OC1CCOC1
IC50 (second compound 0.1 µM): 708 nM
IC50 (second compound 0.316 µM): 541 nM
IC50 (second compound 1 µM): 207 nM
IC50 (second compound 3.16 µM): 123 nM
IC50 (second compound 10 µM): 200 nM
viability, T/C [1]: 84.9%
viability, T/C [2]: 76%
viability, T/C [3]: 59.7%
viability, T/C [4]: 45.4%
viability, T/C [5]: 37.2%
viability, T/C [6]: 31.3%
viability, T/C [7]: 72.1%
viability, T/C [8]: 71.1%
viability, T/C [9]: 56.2%
viability, T/C [10]: 42.2%
viability, T/C [11]: 28%
viability, T/C [12]: 24.5%
viability, T/C [13]: 72.3%
viability, T/C [14]: 67.3%
viability, T/C [15]: 39.5%
viability, T/C [16]: 30.1%
viability, T/C [17]: 27.8%
viability, T/C [18]: 22.6%
viability, T/C [19]: 61.4%
viability, T/C [20]: 53%
viability, T/C [21]: 38.2%
viability, T/C [22]: 28.6%
viability, T/C [23]: 24.8%
viability, T/C [24]: 21.8%
viability, T/C [25]: 57%
viability, T/C [26]: 68.9%
viability, T/C [27]: 41.4%
viability, T/C [28]: 39%
viability, T/C [29]: 28.4%
viability, T/C [30]: 26.3%

CC(C)n1nc(-c2ccc3oc(N)nc3c2)c2c(N)ncnc21 + COc1cc2nc(C)nc(NC(C)c3cc(N)cc(C(F)(F)F)c3)c2cc1OC1CCOC1
IC50 (second compound 0.1 µM): 1.83 nM
IC50 (second compound 0.316 µM): 0.955 nM
IC50 (second compound 1 µM): 0.736 nM
IC50 (second compound 3.16 µM): 0.769 nM
IC50 (second compound 10 µM): 1.41 nM
viability, T/C (second compound 0.1 µM, first compound 0.000316 µM): 67.1%
viability, T/C (second compound 0.1 µM, first compound 0.001 µM): 60.1%
viability, T/C (second compound 0.1 µM, first compound 0.00316 µM): 40.8%
viability, T/C (second compound 0.1 µM, first compound 0.01 µM): 26.4%
viability, T/C [1]: 19%
viability, T/C [2]: 14.5%
viability, T/C (second compound 0.316 µM, first compound 0.000316 µM): 64.5%
viability, T/C (second compound 0.316 µM, first compound 0.001 µM): 48.2%
viability, T/C (second compound 0.316 µM, first compound 0.00316 µM): 37.1%
viability, T/C (second compound 0.316 µM, first compound 0.01 µM): 23.8%
viability, T/C [7]: 17.4%
viability, T/C [8]: 15.7%
viability, T/C (second compound 1 µM, first compound 0.000316 µM): 58.1%
viability, T/C (second compound 1 µM, first compound 0.001 µM): 47.6%
viability, T/C (second compound 1 µM, first compound 0.00316 µM): 33.1%
viability, T/C (second compound 1 µM, first compound 0.01 µM): 24.8%
viability, T/C [13]: 16.7%
viability, T/C [14]: 14%
viability, T/C (second compound 3.16 µM, first compound 0.000316 µM): 54.4%
viability, T/C (second compound 3.16 µM, first compound 0.001 µM): 49.4%
viability, T/C (second compound 3.16 µM, first compound 0.00316 µM): 30.2%
viability, T/C (second compound 3.16 µM, first compound 0.01 µM): 17.7%
viability, T/C [19]: 12.9%
viability, T/C [20]: 11.8%
viability, T/C (second compound 10 µM, first compound 0.000316 µM): 58.5%
viability, T/C (second compound 10 µM, first compound 0.001 µM): 60.2%
viability, T/C (second compound 10 µM, first compound 0.00316 µM): 32.3%
viability, T/C (second compound 10 µM, first compound 0.01 µM): 18.4%
viability, T/C [25]: 9.07%
viability, T/C [26]: 8.86%

CC1(C)CCC(CN2CCN(c3ccc(C(=O)NS(=O)(=O)c4ccc(NCC5CCOCC5)c([N+](=O)[O-])c4)c(Oc4cnc5[nH]ccc5c4)c3)CC2)=C(c2ccc(Cl)cc2)C1 + COc1cc2nc(C)nc(NC(C)c3cc(N)cc(C(F)(F)F)c3)c2cc1OC1CCOC1
IC50 (second compound 0.1 µM): 1520 nM
IC50 (second compound 0.316 µM): 1570 nM
IC50 (second compound 1 µM): 1290 nM
IC50 (second compound 3.16 µM): 1340 nM
IC50 (second compound 10 µM): 591 nM
viability, T/C [1]: 76.6%
viability, T/C [2]: 80.4%
viability, T/C [3]: 67.8%
viability, T/C [4]: 72.2%
viability, T/C [5]: 11.2%
viability, T/C [6]: 2.78%
viability, T/C [7]: 67.7%
viability, T/C [8]: 77.3%
viability, T/C [9]: 75.2%
viability, T/C [10]: 71.5%
viability, T/C [11]: 16.8%
viability, T/C [12]: 3.87%
viability, T/C [13]: 76.2%
viability, T/C [14]: 84.2%
viability, T/C [15]: 84.3%
viability, T/C [16]: 60.3%
viability, T/C [17]: 12.5%
viability, T/C [18]: 2.67%
viability, T/C [19]: 87.4%
viability, T/C [20]: 80.6%
viability, T/C [21]: 84.7%
viability, T/C [22]: 65.1%
viability, T/C [23]: 6.04%
viability, T/C [24]: 2.28%
viability, T/C [25]: 80.7%
viability, T/C [26]: 79.9%
viability, T/C [27]: 61.1%
viability, T/C [28]: 41.6%
viability, T/C [29]: 3.41%
viability, T/C [30]: 1.41%
